Data on 2 substances can be found in article PMC4073510, “Identification of natural antimicrobial agents to treat dengue infection: In vitro analysis of latarcin peptide activity against dengue virus” (BMC Microbiology, 2014).

The test system of one data set is Vero cells. Nature of the data set: Cytotoxicity, Non-Radioactive Cell Proliferation assay. It counts as cell-based. To be noted: Vero cells (method), 72 h. How it is done:
The cytotoxicity of the Ltc 1 peptides was evaluated by determining the maximal non-toxic dose (MNTD) and the 50% cytotoxic concentration (CC50) of the cells using the Non-Radioactive Cell Proliferation assay (Promega, USA) according to the manufacturer’s instructions. […] Vero cells were seeded at 1×10^4 cells/well in triplicate under optimal conditions (37°C, 5% CO2 in a humidified incubator) in 96-well plates with blank controls (media only) and cell controls (cells only). After an overnight incubation, the cells were treated with increasing concentrations of Ltc 1 peptide (0, 4, 8, 16, 32, 64 and 120 μM) with DMEM medium supplemented with 2% FBS and the cell culture was analysed after 72 h. The percentage of cell viability was calculated as follows: […] (absorbance of treated cells/absorbance of untreated cells) × 100. The MNTD and CC50 values were calculated from the dose-response curves.

Another data set relates to HepG2 cells. The data set can be described thus: Real Time Cell Proliferation Assay (RTCA, xCELLigence). Format: cell-based, human. Here is the method: This assay was performed to test the real time effects of the Ltc 1 peptide on cell viability. Cell proliferation was measured using the xCELLigence Real-Time Cellular Analysis (RTCA) system (Roche, Germany) as described previously. Cell viability and growth were monitored continuously after applying increasing concentrations of the Ltc 1 peptide (0, 12.5, 25, 50, 100, 150, 200, 250 μM). Briefly, the background measurements were recorded after adding 100 μl culture medium to the wells. Next, the cells were seeded at a density of 1 × 10^4 cell/well in a 16-well plate with electrodes for 18 h to allow the cells to grow to log phase. The cells were treated with different concentrations of peptide dissolved in cell culture medium and continuously monitored for up to 100 h. The cell sensor impedance was expressed as an arbitrary unit named the cell index. The cell index was recorded every 5 minutes using a RTCA analyser. To eliminate variation between the wells, the cell index values were normalised to the value at the beginning of the treatment.

For the next data set, the system named is DENV2. Nature of the data set: Dose-response assay, viral RNA by one-step qRT-PCR. Format: cell-based, Dengue virus serotype-2 (DENV2). To be noted: HepG2 infected with DENV2, MOI 2, peptide 0-80 μM added after infection, quadruplicate experiments, ± SD. Here is the method:
This assay was performed to evaluate the 50% effective concentration (EC50) of the Ltc 1 peptide against DENV2. HepG2 cells were grown in six-well microplates (1.5 × 10^6 cells/well) for 24 h in quadruplicate experiments. The cell culture media were removed and the cells were washed three times with PBS. Then, fresh medium containing the virus supernatant was added at MOI of 2, followed by incubation for 1 h with gentle shaking every 15 min. The viral residues were removed by washing with PBS, and serial dilutions of the Ltc 1 peptide (0, 2.5, 5, 10, 20, 40, 80 μM) were added. […] The cell supernatants were collected and stored at -80°C for viral load determination using viral RNA and were quantified using one step qReal time-PCR.
The DENV2 copy number was quantified in the culture supernatants using one-step quantitative real-time PCR. Known copies of the viral RNA were 10-fold serially diluted to generate a standard curve. The viral RNA was extracted using the QIAmp viral RNAmini kit (QIAGEN, Germany), and the qRT-PCR was performed using a SYBR Green Master Kit (Qiagen, Germany). Triplicate reactions were performed for each sample, and a no template control was included as a negative control. Absolute quantification was performed using an ABI7500 machine (Applied Biosystems, Foster City, CA). The results were analysed using Sequence Detection Software Version 1.3 (Applied Biosystems, Foster City, CA). The percentage of viral inhibition (%) was calculated as follows: 100 – (viral copy number of treated cells/viral copy number of untreated cells) × 100.

For data set [1] the following is noted: cited from earlier work. An excerpt:
Natural antimicrobial peptides (AMPs) are produced in the majority of living organisms as protection against various pathogens, including viruses. […] Therefore, the objective of this study was to identify and characterise the inhibitory potential of the latarcin peptide (Ltc 1, […]) against dengue virus replication in human cells. Ltc 1 is one of approximately seven latarcin peptides, which are produced in the venom gland of Lachesana tarab ...

The target of data set [2] is T1, dengue NS2B-NS3pro (DENV2 serine protease, recombinant single chain NS2B (G4-T-G4) NS3pro) (Dengue virus type 2, UniProt P14340).
T1 construct: 1394–1440 in DENV2 polyprotein; 1476–1660 in DENV2 polyprotein; made in house; host or cells: E. coli
Nature of the data set: Dengue NS2B-NS3 protease (NS2B-NS3pro) assay. Format: biochemical, Dengue virus serotype-2 (DENV2). To be noted: 2 μM NS2B-NS3pro, 100 μM Boc-Gly-Arg-Arg-AMC, pH 8.5, 200 mM Tris-HCl, 30 min pre-incubation + 30 min with substrate, fluorescence ex 350/em 440 nm, triplicate, repeated twice, ± SD, read-out: IC50 (inhibitory concentration of 50% of enzyme activity). Here is the method: The NS2B-NS3pro assay was performed to examine whether the Ltc 1 peptide inhibits the DENV2 serine protease. Briefly, a single chain NS2B (G4-T-G4) NS3pro was produced as a recombinant protein in E. coli as previously described. The end point reaction mixture was performed in black 96-well plates, which contained 2 μM recombinant NS2B-NS3pro, 100 μM fluorogenic peptide substrate (Boc-Gly-Arg-Arg-AMC) and varying concentrations of the Ltc 1 peptide (0.1 to 40 μM) buffered at pH 8.5 with 200 mM Tris-HCl in a total volume of 200 μl. The reaction mixtures without peptide, substrate with the peptides, enzyme and different concentrations of the peptides were used as controls. […] Measurements were performed in triplicate using a Tecan Infinite M200 Pro fluorescence spectrophotometer (Tecan Group Ltd., Switzerland). […] The fluorescence values obtained with the no-inhibitor control (0.0 μM peptide) were set at 100%, and those in the presence of peptide were calculated as a percentage of the control using non-linear regression in GraphPad Prism (version 5.01) software. The IC50 was calculated from nonlinear regression fitting of the signal vs. concentration data points to the standard dose–response equation Y = Bottom + (Top - Bottom)/(1 + 10^^((X - LogIC50))). […] The inhibition percentage was calculated using the following formula: […]

In a further data set the test system is mammalian cells. To be noted: cited from earlier work.
Data set [3] deals with dengue protease NS2B-NS3pro. As to conditions: compared to the other standard serine protease inhibitors; cited from earlier work. An excerpt: Previous studies reported various inhibitors against dengue protease, including standard serine protease inhibitors, substrate based inhibitors, and non-substrate based inhibitors.

Read-outs that look alike come from different tables or passages of the source. No end group written: not given here.

T1 sequence (P14340 1476-1660): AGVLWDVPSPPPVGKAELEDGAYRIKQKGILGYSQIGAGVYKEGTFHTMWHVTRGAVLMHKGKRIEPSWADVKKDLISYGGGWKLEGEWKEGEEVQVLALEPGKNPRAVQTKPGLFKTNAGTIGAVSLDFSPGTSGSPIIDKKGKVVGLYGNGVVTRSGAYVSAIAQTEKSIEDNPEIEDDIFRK
T1 sequence (P14340 1394-1440): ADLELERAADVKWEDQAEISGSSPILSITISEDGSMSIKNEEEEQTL

For the substance SMWSGMWRRKLKKLRNALKKKLKGE [Ltc 1], the cell viability with Vero cells (25 μM peptide) was 80%. Besides, the “CC50 (50% cytotoxic concentration)” value with Vero cells (0-120 μM peptide, DMEM 2% FBS, 37°C, triplicate, ± SD) is “approximately 52.51 ± 3.6 μM”. In addition, the “effect on cell proliferation” value was “insignificant” with HepG2 cells (25 μM, 110 h, cell index similar to untreated control cells); “significantly decreased” with HepG2 cells (50 μM, after 66 h of incubation, HepG2 cells); “toxic to the cells” in the data set on HepG2 cells (concentrations higher than 50 μM, all time-points). Further, in the data set on HepG2 cells (HepG2 cells, real-time cell index, concentrations 0-250 μM), the “maximal non-toxic dose (MNTD)” value was 25 µM. Moreover, the 50% effective concentration (EC50) with DENV2 (24 h) was found to be 8.3 ± 1.2 µM; with DENV2 (48 h) it was 7.6 ± 2.7 µM; with DENV2 (72 h), 6.8 ± 2.5 µM. In data set [1], the haemolytic activity entry is “moderate haemolytic activity”. In addition, the IC50 was determined as 12.7 ± 3.2 µM in data set [2] (37°C) and 6.58 ± 4.1 µM in data set [2] (40°C (high fever-like)). Moreover, in the data set with mammalian cells, the “induction of cell apoptosis” value is on record as “induces cellular changes that lead to cell apoptosis”.
On to aprotinin, for which the “inhibitory effect against the dengue protease” value in data set [3] is “picomolar levels”.
